Values quoted from earlier work in patent US20100285098A1, “ADHERING TROCHES WITH SANTACID FOR TREATMENT OF THROAT ESOPHAGUS AND STOMACH” (priority 2007, published 2010).

Row | absorbed into the blood (delivered to the stomach such as by capsule) [%] | inhaled dose systemically absorbed (delivered topically by dry powder inhaler) | excretion (in vivo) | metabolism by the body (in vivo) | SMILES | side effects (other than those caused by the delivery vehicle) | suppression of Streptococcus pyogenes (Streptococcus pyogenes) | suppression of Helicobacter pylori (Helicobacter pylori)
1 | 2 | 4-17% | excreted in the urine without change | not metabolized | CC(=O)N[C@H]1[C@H]([C@H](O)[C@H](O)CO)OC(C(=O)O)=C[C@@H]1N=C(N)N [Zanamavir, zanamavir] | Rare side effects |  | 
2 |  |  |  |  | OC[C@@H](O)[C@H](O)[C@@H](O)CO [xylitol] |  | suppressed | suppressed
